Source: article PMC12185669 (Archives of Toxicology, 2025)
Where two headings read alike, the source gives them in different places.

Legend:
[1] = Quantification in postmortem blood and urine of dipyanone-positive forensic cases; details: for concentration in blood, case #2: autoptic heart blood; for concentration in urine, case #2: autoptic urine
mice = details: ref Scott et al. 1946, 1947; cited from earlier work
[2] = set-up: method as in Scott et al. 1947; details: ref Scott et al. 1947; cited from earlier work
mouse [3] = tested on: mouse; set-up: method as in Janssen and Jageneau 2011; details: ref Janssen and Jageneau 2011; cited from earlier work
[4] = tested on: ten-donor-pooled cryopreserved human hepatocytes; assay: Human hepatocyte incubation, LC-HRMS/MS metabolite identification; assay type: in vitro ADME; details: for Hepatocytes peak area: LC-HRMS, positive ionisation mode, three hours of incubation with human hepatocytes, ND not detected; for portion of the total metabolites' signal: hepatocyte incubation, three hours
Experimental: Dipyanone incubations with human hepatocytes were carried out as previously described (Carlier et al. [2022]; Taoussi et al. [2024]). Briefly, the hepatocytes were thawed in 50 mL of thawing medium at 37 °C. After centrifugation (100 g, 5 min), the supernatant was discarded and the pellet was resuspended in 50 mL of SWM at 37 °C. Following a second centrifugation (100 g, 5 min), the supernatant was removed, and the pellet was resuspended in 2 mL of SWM at 37 °C. Cell viability was determined using the trypan blue exclusion method, and the SWM volume was adjusted to reach a concentration of 2 × 10^6 cells/mL. In sterile 24-well culture plates, 250 µL hepatocyte suspension was gently mixed with 250 µL of dipyanone (20 µmol/L in SWM). The plates were incubated at 37 °C, and reactions were stopped after 0 or 3 h with 500 µL ice-cold acetonitrile, followed by centrifugation (15,000 g, 10 min). Negative (without SWM, hepatocytes, or dipyanone) and positive controls (diclofenac incubation) were incubated for 0 and 3 h under the same conditions to exclude nonspecific reactions and ensure proper metabolic activity. Incubates were stored at – 80° until analysis.
A 100 µL volume of incubate was mixed with 100 µL of acetonitrile and centrifuged for 10 min, 15,000 g at room temperature for protein precipitation (acetonitrile:SWM, 3:1, v/v). The supernatant was dried under a nitrogen stream at 37 °C. […] Again, the solution was centrifuged (10 min, 15,000 g) at room temperature. The resulting supernatant was transferred into vials with a glass insert, and 10 µL was injected into the chromatographic system for analysis.
The total chromatographic run time was 24 min.

[5] = Metabolite identification in authentic postmortem urine samples by LC-HRMS/MS; details: for portion of the total metabolites' signal in urine: both urine samples; for Urine #1 peak area with β-gluc: postmortem urine case #1, after β-glucuronidase hydrolysis; for Urine #1 peak area with β-gluc / Urine #1 peak area / Urine #2 peak area with β-gluc / Urine #2 peak area: ND not detected; for Urine #1 peak area: postmortem urine case #1, no hydrolysis; for Urine #1 peak area / Urine #2 peak area: positive ionisation mode; for Urine #2 peak area with β-gluc: postmortem urine case #2, after β-glucuronidase hydrolysis; for Urine #2 peak area: postmortem urine case #2, no hydrolysis
Experimental: (§1) Samples were thawed at room temperature. A 100 µL aliquot was mixed with 200 µL of acetonitrile and centrifuged for 10 min at 15,000 g at room temperature. The supernatants were evaporated to dryness under nitrogen at 37 °C. The residues were reconstituted in 100 µL of a mixture containing 95% mobile phase A and 5% mobile phase B (v/v). After centrifugation under the same conditions, the supernatants were transferred to autosampler vials with glass inserts. A 10 µL volume was injected into the chromatographic system for analysis.
(§2) To investigate glucuronic acid conjugation, 100 µL of urine was mixed with 10 µL of 10 mol/L ammonium acetate (pH 5.0) and 100 µL of β-glucuronidase (5000 units), then incubated at 37 °C for 90 min. Subsequently, 400 µL of ice-cold acetonitrile was added to the mixtures, which were centrifuged for 10 min at 15,000 g at room temperature. The supernatants were evaporated to dryness under nitrogen at 37 °C and reconstituted in 100 µL of a mixture containing 95% mobile phase A and 5% mobile phase B (v/v). After centrifugation under the same conditions, the supernatants were transferred to autosampler vials with glass inserts. A 10 µL volume was injected into the chromatographic system for analysis.
(§3) The analyses were conducted by liquid chromatography-high-resolution tandem mass spectrometry (LC-HRMS/MS) with a DIONEX UltiMate 3000 liquid chromatographer coupled to a Q Exactive quadrupole-Orbitrap hybrid high-resolution mass spectrometer equipped with a heated electrospray ionisation (HESI) source from Thermo Scientific (Waltham, Massachusetts, USA).
(§4) The compounds were separated using a Kinetex Biphenyl column (150 × 2.1 mm, 2 μm) from Phenomenex (Torrance, California, USA). The separation was achieved using mobile phases A and B at a flow rate of 0.4 mL/min. The gradient elution program was as follows: 2% B was held for 2 min, then increased to 25% B over 12 min, followed by a rapid increase to 95% B within 2 min, and held for 4 min. Subsequently, the initial conditions were restored within 0.1 min and maintained for 3.9 min. The total chromatographic run time was 24 min. Throughout the analysis, the column oven temperature was maintained at 37 ± 1 °C, while the autosampler temperature was set to 10 ± 1 C.
(§5) All samples were analysed in both positive- and negative-ion modes, requiring two separate injections while maintaining the same HESI conditions. […] Prior to each analytical session, mass calibration was performed using certified calibration solutions in both positive and negative ion modes. To enhance accuracy, a lock mass list was compiled for positive- (m/z 279.0933, 144.9821, 146.9803) and negative ion modes (m/z 265.1479, 162.9824, 248.9604).
(§6) The mass spectrometer acquired from 1 to 20 min of the chromatographic run in full-scan HRMS (FullMS)/data-dependent MS/MS (ddMS^2) mode. The FullMS settings were as follows: range, m/z 100 to 650; resolution at full width at half maximum at m/z 200, 70,000; automatic gain control target, 1 × 10^6; and maximum injection time, 200 ms. For ddMS^2, the settings were: automatic gain control target, 2 × 10^5; maximum injection time, 64 ms; isolation window, m/z 1.2; resolution, 17,500; and stepped normalised collision energy, 40, 70, and 90 a.u. A maximum of five ddMS^2 scans were triggered for each FullMS scan, with a minimum intensity of 10^4 and dynamic exclusion of 2.0 s..
(§7) LC-HRMS/MS data were processed with Thermo Scientific Compound Discoverer in a single analysis.

[6] = molecular target: human DOR membrane preparation (Homo sapiens, UniProt P41143); assay: HTRF-based GTP Gi binding assay, DOR; assay type: biochemical
human DOR membrane preparation, sequence (P41143 whole entry): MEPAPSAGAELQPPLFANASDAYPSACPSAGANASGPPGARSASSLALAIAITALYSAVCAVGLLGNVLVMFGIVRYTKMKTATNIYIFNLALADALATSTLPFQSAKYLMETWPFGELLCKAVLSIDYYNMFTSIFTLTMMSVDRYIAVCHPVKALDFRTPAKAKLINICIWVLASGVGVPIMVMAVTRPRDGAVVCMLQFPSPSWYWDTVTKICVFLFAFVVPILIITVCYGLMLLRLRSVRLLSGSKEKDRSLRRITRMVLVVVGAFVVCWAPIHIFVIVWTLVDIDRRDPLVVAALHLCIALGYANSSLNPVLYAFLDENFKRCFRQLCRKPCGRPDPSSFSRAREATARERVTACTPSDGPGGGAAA

[7] = molecular target: human MOR membrane preparation (Homo sapiens, UniProt P35372); assay: biochemical
human MOR membrane preparation, sequence (P35372 whole entry): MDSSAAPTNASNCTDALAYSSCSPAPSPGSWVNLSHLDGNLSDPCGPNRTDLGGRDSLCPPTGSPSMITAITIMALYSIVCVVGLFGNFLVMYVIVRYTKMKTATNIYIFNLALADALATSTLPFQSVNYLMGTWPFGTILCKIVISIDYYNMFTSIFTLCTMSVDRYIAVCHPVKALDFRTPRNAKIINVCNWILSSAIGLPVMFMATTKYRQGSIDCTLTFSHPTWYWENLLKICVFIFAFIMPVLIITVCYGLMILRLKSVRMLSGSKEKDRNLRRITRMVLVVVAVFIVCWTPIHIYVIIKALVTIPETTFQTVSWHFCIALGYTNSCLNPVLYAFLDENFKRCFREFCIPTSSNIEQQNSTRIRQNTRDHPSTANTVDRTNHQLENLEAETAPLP

mouse [8] = tested on: mouse; set-up: method as in Bockmühl and Ehrhart 1949; details: mouse tail pinch test; ref Bockmühl and Ehrhart 1949; cited from earlier work
[9] = detected alongside other NSOs; ref Vandeputte et al. 2023; cited from earlier work
µ-opioid receptor = details: cited from earlier work
[10] = human, in vivo
Experimental: as §1, §2, §3, §4, §5, §6, §7

[11] = molecular target: human KOR membrane preparation (Homo sapiens, UniProt P41145); assay: HTRF-based GTP Gi binding assay, KOR; assay type: biochemical
human KOR membrane preparation, sequence (P41145 whole entry): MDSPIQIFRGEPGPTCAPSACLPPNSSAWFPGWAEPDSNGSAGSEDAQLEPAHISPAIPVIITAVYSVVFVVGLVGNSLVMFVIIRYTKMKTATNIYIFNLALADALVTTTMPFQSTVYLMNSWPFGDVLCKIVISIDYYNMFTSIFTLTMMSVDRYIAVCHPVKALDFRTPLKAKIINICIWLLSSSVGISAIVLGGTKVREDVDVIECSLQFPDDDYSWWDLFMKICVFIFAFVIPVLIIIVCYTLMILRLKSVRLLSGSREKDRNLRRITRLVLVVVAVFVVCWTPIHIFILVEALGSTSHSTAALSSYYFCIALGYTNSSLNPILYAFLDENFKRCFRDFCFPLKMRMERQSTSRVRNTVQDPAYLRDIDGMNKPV

Molecule: 2-fluoromethamphetamine
- concentration in blood, case #2 [1]: 96 ng/mL

Molecule: CC[C@@H]1CN2CC[C@@]3(O)C(=Nc4cccc(OC)c43)[C@@H]2C[C@@H]1/C(=C\OC)C(=O)OC [7-hydroxymitragynine]
- concentration in blood, case #2 [1]: 4.7 ng/mL
- concentration in urine, case #2 [1]: > 200 ng/mL

Molecule: mitragynine
- concentration in blood, case #2 [1]: 160 ng/mL
- concentration in urine, case #2 [1]: > 200 ng/mL

Molecule: CCC(=O)C(CC(C)N(C)C)(c1ccccc1)c1ccccc1 (centres unmarked) [methadone, reference compound]
- LD50 in mice (mice): ~ 17 mg/kg
- analgesic threshold [2]: 1 to 2 mg/kg
- median effective dose, mouse hot plate assay (mouse [3]): 5.18 mg/kg

Molecule: CNC1(c2ccccc2F)CCCCC1=O (centres unmarked) [2-fluoro-deschloroketamine]
- concentration in blood, case #2 [1]: < 1.0 ng/mL
- concentration in urine, case #2 [1]: > 50 ng/mL

Molecule: CC=C1N(CCCCO)C(C)CC1(c1ccccc1)c1ccccc1 (centres unmarked) [M12, 4’-[2-ethylidene-5-methyl-3,3-diphenylpyrrolidin-1-yl]butan-1’-ol]
- Hepatocytes peak area [4]: 1.8 × 10^7
- portion of the total metabolites' signal [4]: 50%
- portion of the total metabolites' signal in urine [5]: 23–26%
- Urine #1 peak area with β-gluc [5]: 3.4 × 10^9
- Urine #1 peak area [5]: 2.3 × 10^9
- Urine #2 peak area with β-gluc [5]: 1.7 × 10^9
- Urine #2 peak area [5]: 2.1 × 10^9

Molecule: CC(N)Cc1ccccc1F (centres unmarked) [2-fluoroamphetamine]
- concentration in blood, case #2 [1]: 24 ng/mL

Molecule: CC=C1N(CCCC(=O)O)C(C)CC1(c1ccccc1)c1ccccc1 (centres unmarked) [M13, 4’-[2-ethylidene-5-methyl-3,3-diphenylpyrrolidin-1-yl]butanoic acid]
- Hepatocytes peak area [4]: 9.5 × 10^6
- portion of the total metabolites' signal [4]: 27%
- portion of the total metabolites' signal in urine [5]: 61%
- Urine #1 peak area with β-gluc [5]: 5.7 × 10^9
- Urine #1 peak area [5]: 5.4 × 10^9
- Urine #2 peak area with β-gluc [5]: 3.3 × 10^9
- Urine #2 peak area [5]: 5.6 × 10^9

Molecule: CNC1(c2ccccc2)CCCCC1=O (centres unmarked) [deschloroketamine]
- concentration in blood, case #2 [1]: 1.0 ng/mL
- concentration in urine, case #2 [1]: 23 ng/mL

Molecule: CCC(=O)C(CC(C)N1CCCC1)(c1ccccc1)c1ccccc1 (centres unmarked) [Dipyanone, 4,4-diphenyl-6-(1’-pyrrolidinyl)-3-heptanone]
- LD50 in mice (mice): ~ 17 mg/kg
- Hepatocytes peak area [4]: 7.7 × 10^8
- LC-HRMS/MS peak area after incubation relative to its original value ([4]; after three hours of incubation, compared to the controls): approximately one-sixth
- EC50 [6]: 1070 nM
- Emax ([6]; normalised to SNC-80, mean (95% CI), n = 3, read-out: DOR Emax relative to SNC-80): 56%
- EC50 [7]: 96.8 nM
- analgesic properties relative to pethidine (mouse [8]): 5–10 times
- Urine #1 peak area with β-gluc [5]: 1.3 × 10^10
- Urine #1 peak area [5]: 1.1 × 10^10
- Urine #2 peak area with β-gluc [5]: 8.0 × 10^9
- blood concentration, postmortem case in the USA [9]: 370 ng/mL
- efficacy (Emax) compared to hydromorphone at the µ-opioid receptor (µ-opioid receptor): 155%
- EC50 (µ-opioid receptor; read-out: EC50 at MOR, β-arrestin2 recruitment assay): 39.9 nM
- Urine #2 peak area [10]: 1.3 × 10^10
- analgesic threshold [2]: 1 to 2 mg/kg
- concentration in urine, four dipyanone-related fatalities ([1]; Germany 2022 and 2023, own unpublished data): 80 to 5500 ng/mL
- concentration in blood, case #2 [1]: 80 ng/mL
- concentration in blood, case #1 ([1]; postmortem femoral blood): 720 ng/mL
- EC50 [11]: 380 nM
- Emax ([11]; normalised to U-50488, mean (95% CI), n = 3, read-out: KOR Emax relative to U-50488): 13%
- median effective dose, mouse hot plate assay (mouse [3]): 6.82 mg/kg

Molecule: CCNC1(c2ccccc2)CCCCC1=O (centres unmarked) [deschloro-N-ethylketamine]
- concentration in blood, case #2 [1]: 46 ng/mL
- concentration in urine, case #2 [1]: > 50 ng/mL
